Laboratory results from PubChem BioAssay (NCI).
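Method: 48-hour compound exposure of cells in 96-well plates, five concentrations, linear interpolation of endpoints. Abbreviation: GI50, concentration required for 50% inhibition of growth. TGI: concentration producing complete growth inhibition.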

Assays:
Assay in all cases: NCI-60 cell line screen, 48 h
NCI/ADR-RES ovarian = tested on: NCI/ADR-RES ovarian
TK-10 renal = tested on: TK-10 renal
A549 NSCLC = tested on: A549 NSCLC
RXF 393 renal = tested on: RXF 393 renal
MDA-MB-231 breast = tested on: MDA-MB-231 breast
A498 renal = tested on: A498 renal
HOP-62 NSCLC = tested on: HOP-62 NSCLC
CCRF-CEM leukemia = tested on: CCRF-CEM leukemia
CAKI-1 renal = tested on: CAKI-1 renal
SF-539 CNS = tested on: SF-539 CNS
NCI-H460 lung = tested on: NCI-H460 lung
SF-295 CNS = tested on: SF-295 CNS
MOLT-4 leukemia = tested on: MOLT-4 leukemia
LOX IMVI melanoma = tested on: LOX IMVI melanoma
K-562 leukemia = tested on: K-562 leukemia
HCT-116 colon = tested on: HCT-116 colon
HL-60(TB) leukemia = tested on: HL-60(TB) leukemia
SW-620 colon = tested on: SW-620 colon
786-0 renal = tested on: 786-0 renal
HCC-2998 colon = tested on: HCC-2998 colon
OVCAR-3 ovarian = tested on: OVCAR-3 ovarian
HT29 colon = tested on: HT29 colon
SK-MEL-2 melanoma = tested on: SK-MEL-2 melanoma
MDA-MB-435 = tested on: MDA-MB-435
DU-145 prostate = tested on: DU-145 prostate
SF-268 CNS = tested on: SF-268 CNS
M14 melanoma = tested on: M14 melanoma
SR leukemia = tested on: SR leukemia
SK-MEL-28 melanoma = tested on: SK-MEL-28 melanoma
NCI-H23 lung = tested on: NCI-H23 lung
HOP-92 NSCLC = tested on: HOP-92 NSCLC
U251 CNS = tested on: U251 CNS
OVCAR-4 ovarian = tested on: OVCAR-4 ovarian
NCI-H226 lung = tested on: NCI-H226 lung
MALME-3M melanoma = tested on: MALME-3M melanoma
HS 578T breast = tested on: HS 578T breast
T-47D breast = tested on: T-47D breast
OVCAR-5 ovarian = tested on: OVCAR-5 ovarian
UO-31 renal = tested on: UO-31 renal
IGROV1 ovarian = tested on: IGROV1 ovarian
MCF7 breast = tested on: MCF7 breast
SK-OV-3 ovarian = tested on: SK-OV-3 ovarian
SNB-75 CNS = tested on: SNB-75 CNS
SNB-19 CNS = tested on: SNB-19 CNS
PC-3 prostate = tested on: PC-3 prostate
HCT-15 colon = tested on: HCT-15 colon
NCI-H522 lung = tested on: NCI-H522 lung
RPMI-8226 leukemia = tested on: RPMI-8226 leukemia
UACC-257 melanoma = tested on: UACC-257 melanoma
COLO 205 colon = tested on: COLO 205 colon
EKVX NSCLC = tested on: EKVX NSCLC
SK-MEL-5 melanoma = tested on: SK-MEL-5 melanoma
ACHN renal = tested on: ACHN renal
OVCAR-8 ovarian = tested on: OVCAR-8 ovarian
BT-549 breast = tested on: BT-549 breast
KM12 colon = tested on: KM12 colon

## COC(=O)[C@]12CC[C@@H](C)[C@H](C)[C@@H]1C1=CC[C@@H]3[C@@]4(C)C=C(O)C(=O)[C@@]5(C)COC(=C54)C[C@@]3(C)[C@]1(C)CC2
NCI/ADR-RES ovarian
  GI50: 14.3 µM
  TGI: 45.6 µM
TK-10 renal
  GI50: 12.5 µM
  TGI: 29.8 µM
A549 NSCLC
  GI50: 8.36 µM
  TGI: 26 µM
RXF 393 renal
  GI50: 7.09 µM
  TGI: 24.9 µM
MDA-MB-231 breast
  GI50: 11.9 µM
  TGI: 29.7 µM
A498 renal
  GI50: 15.2 µM
  TGI: 32.5 µM
HOP-62 NSCLC
  GI50: 15.4 µM
  TGI: 35 µM
CCRF-CEM leukemia
  GI50: 3.38 µM
  TGI: 14.9 µM
CAKI-1 renal
  GI50: 9.36 µM
  TGI: 26.7 µM
SF-539 CNS
  GI50: 18.4 µM
  TGI: 44.3 µM
NCI-H460 lung
  GI50: 12.4 µM
  TGI: 28.9 µM
SF-295 CNS
  GI50: 13 µM
  TGI: 28.7 µM
MOLT-4 leukemia
  GI50: 2.21 µM
  TGI: 6.52 µM
LOX IMVI melanoma
  GI50: 8.85 µM
  TGI: 22.4 µM
K-562 leukemia
  GI50: 3.12 µM
  TGI: 13.8 µM
HCT-116 colon
  GI50: 9.49 µM
  TGI: 22.9 µM
HL-60(TB) leukemia
  GI50: 4.17 µM
  TGI: 19.9 µM
SW-620 colon
  GI50: 11.3 µM
  TGI: 26.3 µM
786-0 renal
  GI50: 13.9 µM
  TGI: 29.7 µM
HCC-2998 colon
  GI50: 11.5 µM
  TGI: 26.7 µM
OVCAR-3 ovarian
  GI50: 11.5 µM
  TGI: 24.4 µM
HT29 colon
  GI50: 10.5 µM
  TGI: 25.9 µM
SK-MEL-2 melanoma
  GI50: 13.1 µM
  TGI: 29.6 µM
MDA-MB-435
  GI50: 6.12 µM
  TGI: 21.5 µM
DU-145 prostate
  GI50: 11.7 µM
  TGI: 28.2 µM
SF-268 CNS
  GI50: 13.3 µM
  TGI: 31.6 µM
M14 melanoma
  GI50: 11.7 µM
  TGI: 27.3 µM
SR leukemia
  GI50: 2.69 µM
  TGI: 8.77 µM
SK-MEL-28 melanoma
  GI50: 16.4 µM
  TGI: 38.9 µM
NCI-H23 lung
  GI50: 4.19 µM
  TGI: 18.2 µM
HOP-92 NSCLC
  GI50: 14 µM
  TGI: 28.9 µM
U251 CNS
  GI50: 12.6 µM
  TGI: 30.7 µM
OVCAR-4 ovarian
  GI50: 8.32 µM
  TGI: 23.5 µM
NCI-H226 lung
  GI50: 15.1 µM
  TGI: 41.3 µM
MALME-3M melanoma
  GI50: 15 µM
  TGI: 32.4 µM
HS 578T breast
  GI50: 16.1 µM
  TGI: 49.9 µM
T-47D breast
  GI50: 3.66 µM
  TGI: 20.7 µM
OVCAR-5 ovarian
  GI50: 20.9 µM
  TGI: 49.6 µM
UO-31 renal
  GI50: 10.1 µM
  TGI: 24.4 µM
IGROV1 ovarian
  GI50: 8.42 µM
  TGI: 29.6 µM
MCF7 breast
  GI50: 3.45 µM
  TGI: 12.3 µM
SK-OV-3 ovarian
  GI50: 14.6 µM
  TGI: 32.5 µM
SNB-75 CNS
  GI50: 14.8 µM
  TGI: 43.1 µM
SNB-19 CNS
  GI50: 15.8 µM
  TGI: 37.9 µM
PC-3 prostate
  GI50: 4.77 µM
  TGI: 18.5 µM
HCT-15 colon
  GI50: 11.6 µM
  TGI: 26.6 µM
NCI-H522 lung
  GI50: 2.57 µM
  TGI: 9.17 µM
RPMI-8226 leukemia
  GI50: 5.57 µM
  TGI: 29.7 µM
UACC-257 melanoma
  GI50: 4.32 µM
  TGI: 18.8 µM
COLO 205 colon
  GI50: 13.5 µM
  TGI: 29.6 µM
EKVX NSCLC
  GI50: 8.37 µM
  TGI: 26.5 µM
SK-MEL-5 melanoma
  GI50: 4.25 µM
  TGI: 15.3 µM
ACHN renal
  GI50: 11.7 µM
  TGI: 28.7 µM
OVCAR-8 ovarian
  GI50: 12.9 µM
  TGI: 47 µM
BT-549 breast
  GI50: 7.96 µM
  TGI: 25.8 µM
KM12 colon
  GI50: 11.9 µM
  TGI: 29.4 µM
